Data from patent publication US8163771B2, “11 β-HSD1 modulators” (Exelixis, Inc., priority 2008, dated 2012).

These compounds were tested against T1, recombinant human 11 β-HSD1 (Homo sapiens, UniProt P28845) (assay: 11 β-HSD1 SPA Assay (Scintillation Proximity Assay)).
T1 construct: made in house; host or cells: E. coli
Format: biochemical
Description: (§1) Inhibition of 11 βHSD1 by test compounds was assessed in vitro by a Scintillation Proximity Assay (SPA). The assay was carried out in a 384-well assay plate in a total well volume of 26 μl and contained a mixture of tritiated cortisone substrate (40 nM), NADPH cofactor (1 mM), inhibitor in serial dilutions ([…] to 10 μM), and purified E. coli-expressed recombinant human 11 βHSD1 (30-100 nM) in assay buffer (50 mM HEPES, 100 mM KCl, 5 mM NaCl, and 2 mM MgCl2, pH7.4). Following mixing, the plate was incubated for 2 hours at room temperature. Reactions were stopped by addition of 30 μl of protein A YSi SPA beads (10 mg/ml) that had been pre-incubated with glycyrrhetinic acid (1 mM) and a monoclonal cortisol antibody (3 μg/ml). The plate was then incubated overnight at room temperature prior to reading on a Microbeta counter. Percent inhibition of each compound was calculated based on the background and the maximal signals. Wells that contained substrate without compound or enzyme were used as the background signal, while the wells that contained substrate and enzyme without any compound were used as the maximal signal. The calculation of the IC50 values for the inhibitors was performed by Activity Base.
as §1, with “β-HSD1” for “βHSD1”

T1 sequence (P28845 whole entry): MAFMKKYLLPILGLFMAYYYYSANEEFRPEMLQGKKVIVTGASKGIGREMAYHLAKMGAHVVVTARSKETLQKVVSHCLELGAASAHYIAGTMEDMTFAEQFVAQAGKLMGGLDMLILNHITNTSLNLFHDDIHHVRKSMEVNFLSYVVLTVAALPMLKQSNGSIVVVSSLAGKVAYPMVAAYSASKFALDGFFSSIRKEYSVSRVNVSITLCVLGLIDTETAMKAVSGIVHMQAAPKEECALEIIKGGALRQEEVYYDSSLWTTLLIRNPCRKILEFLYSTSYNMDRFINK

| Compound | IC50 [nM] |
| --- | --- |
| CC(C)(Oc1ccc(Cl)cc1Cl)C(=O)N[C@H]1C[C@H]2CC[C@@H](C1)N2c1ccc(C#N)cn1 [Example 55, N-[8-(5-cyanopyridin-2-yl)-8-azabicyclo[3.2.1]oct-3-endo-yl]-2-[(2,4-dichlorophenyl)oxy]-2-methylpropanamide] | < 200 |
| CC(C)(Oc1ccc(Cl)cc1Cl)C(=O)N[C@H]1C[C@H]2CC[C@@H](C1)N2c1ccc(C(N)=O)cn1 [Example 56, 6-[3-endo-({2-[(2,4-dichlorophenyl)oxy]-2-methylpropanoyl}amino)-8-azabicyclo[3.2.1]oct-8-yl]pyridine-3-carboxamide] | < 200 |
| CC(=O)c1ccc(N2[C@@H]3CC[C@H]2C[C@@H](NC(=O)C2(c4ccc(Cl)cc4)CC2)C3)nc1 [Example 57, N-[8-(5-acetylpyridin-2-yl)-8-azabicyclo[3.2.1]oct-3-endo-yl]-1-(4-chlorophenyl)cyclopropanecarboxamide] | < 200 |
| CC(=O)Nc1ccc(N2[C@@H]3CC[C@H]2C[C@@H](NC(=O)C2(c4ccc(Cl)cc4)CC2)C3)nc1 [Example 58, N-{8-[5-(acetylamino)pyridin-2-yl]-8-azabicyclo[3.2.1]oct-3-endo-yl}-1-(4-chlorophenyl)cyclopropanecarboxamide] | < 200 |
| O=C(Nc1ccc(N2[C@@H]3CC[C@H]2C[C@@H](NC(=O)C2(c4ccc(Cl)cc4)CC2)C3)nc1)C1CC1 [Example 59, 1-(4-chlorophenyl)-N-(8-{5-[(cyclopropylcarbonyl)amino]pyridin-2-yl}-8-azabicyclo[3.2.1]oct-3-endo-yl)cyclopropanecarboxamide] | < 200 |
| CS(=O)(=O)Nc1ccc(N2[C@@H]3CC[C@H]2C[C@@H](NC(=O)C2(c4ccc(Cl)cc4)CC2)C3)nc1 [Example 60, 1-(4-chlorophenyl)-N-(8-{5-[(methylsulfonyl)amino]pyridin-2-yl}-8-azabicyclo[3.2.1]oct-3-endo-yl)cyclopropanecarboxamide] | < 200 |
| Nc1ccc(N2[C@@H]3CC[C@H]2C[C@@H](NC(=O)C2(c4ccc(Cl)cc4)CC2)C3)nc1 [Example 61, N-[8-(5-aminopyridin-2-yl)-8-azabicyclo[3.2.1]oct-3-endo-yl]-1-(4-chlorophenyl)cyclopropanecarboxamide] | < 200 |
| O=C(NC1CC1)c1ccc(N2[C@@H]3CC[C@H]2C[C@@H](NC(=O)C2(c4ccc(Cl)cc4)CC2)C3)cc1 [Example 62, 4-[3-endo-({[1-(4-chlorophenyl)cyclopropyl]carbonyl}amino)-8-azabicyclo[3.2.1]oct-8-yl]-N-cyclopropylbenzamide] | < 200 |
| O=C(NC1CC1)c1ccc(N2[C@@H]3CC[C@H]2C[C@@H](NC(=O)C2(c4ccc(Cl)cc4)CC2)C3)cc1Cl [Example 63, 2-chloro-4-[3-endo-({[1-(4-chlorophenyl)cyclopropyl]carbonyl}amino)-8-azabicyclo[3.2.1]oct-8-yl]-N-cyclopropylbenzamide] | < 200 |
| O=C(NC1CC1)c1ccc(N2[C@@H]3CC[C@H]2C[C@@H](NC(=O)C2(Oc4ccc(Cl)cc4)CC2)C3)nc1 [Example 64, 6-{3-endo-[({1-[(4-chlorophenyl)oxy]cyclopropyl}carbonyl)amino]-8-azabicyclo[3.2.1]oct-8-yl}-N-cyclopropylpyridine-3-carboxamide] | < 200 |
| CC(C)(Oc1ccc(Cl)cc1Cl)C(=O)N[C@H]1C[C@H]2CC[C@@H](C1)N2c1ccc(C(=O)NCC(F)(F)F)cn1 [Example 65, 6-[3-endo-({2-[(2,4-dichlorophenyl)oxy]-2-methylpropanoyl}amino)-8-azabicyclo[3.2.1]oct-8-yl]-N-(2,2,2-trifluoroethyl)pyridine-3-carboxamide] | < 200 |
| CC(C)(Oc1ccc(Cl)cc1)C(=O)N[C@H]1C[C@H]2CC[C@@H](C1)N2c1cnccn1 [Example 66, 2-[(4-chlorophenyl)oxy]-2-methyl-N-(8-pyrazin-2-yl-8-azabicyclo[3.2.1]oct-3-endo-yl)propanamide] | < 200 |
| COCCNC(=O)c1ccc(N2[C@@H]3CC[C@H]2C[C@@H](NC(=O)C(C)Oc2ccc(Cl)cc2)C3)nc1 (stereo partly drawn) [Example 67, 6-[3-endo-({2-[(4-chlorophenyl)oxy]propanoyl}amino)-8-azabicyclo[3.2.1]oct-8-yl]-N-[2-(methyloxy)ethyl]pyridine-3-carboxamide] | < 10000 |
| COCCNC(=O)c1ccc(N2[C@@H]3CC[C@H]2C[C@@H](NC(=O)C(C)Oc2ccc(Cl)cc2Cl)C3)nc1 (stereo partly drawn) [Example 68, 6-[3-endo-({2-[(2,4-dichlorophenyl)oxy]propanoyl}amino)-8-azabicyclo[3.2.1]oct-8-yl]-N-[2-(methyloxy)ethyl]pyridine-3-carboxamide] | < 2000 |
| CC(C)(Oc1cc(F)ccc1Cl)C(=O)N[C@H]1C[C@H]2CC[C@@H](C1)N2c1ccc(C(=O)NC2CC2)cn1 [Example 69, 6-[3-endo-({2-[(2-chloro-5-fluorophenyl)oxy]-2-methylpropanoyl}amino)-8-azabicyclo[3.2.1]oct-8-yl]-N-cyclopropylpyridine-3-carboxamide] | < 200 |
| CC(C)NC(=O)c1ccc(N2[C@@H]3CC[C@H]2C[C@@H](NC(=O)C(C)(C)Oc2ccc(F)cc2Cl)C3)nc1 [Example 70, 6-[3-endo-({2-[(2-chloro-4-fluorophenyl)oxy]-2-methylpropanoyl}amino)-8-azabicyclo[3.2.1]oct-8-yl]-N-(1-methylethyl)pyridine-3-carboxamide] | < 200 |
| CC(C)(Oc1cc(Cl)ccc1Cl)C(=O)N[C@H]1C[C@H]2CC[C@@H](C1)N2c1ccc(C(=O)NC2CC2)cn1 [Example 71, N-cyclopropyl-6-[3-endo-({2-[(2,5-dichlorophenyl)oxy]-2-methylpropanoyl}amino)-8-azabicyclo[3.2.1]oct-8-yl]pyridine-3-carboxamide] | < 200 |
| CC(C)(Oc1cc(Cl)ccc1Cl)C(=O)N[C@H]1C[C@H]2CC[C@@H](C1)N2c1ccc(C(=O)NCC(F)(F)F)cn1 [Example 72, 6-[3-endo-({2-[(2,5-dichlorophenyl)oxy]-2-methylpropanoyl}amino)-8-azabicyclo[3.2.1]oct-8-yl]-N-(2,2,2-trifluoroethyl)pyridine-3-carboxamide] | < 200 |
| CC(C)(Oc1cc(F)ccc1Cl)C(=O)N[C@H]1C[C@H]2CC[C@@H](C1)N2c1ccc(C(=O)NCC(F)(F)F)cn1 [Example 73, 6-[3-endo-({2-[(2-chloro-5-fluorophenyl)oxy]-2-methylpropanoyl}amino)-8-azabicyclo[3.2.1]oct-8-yl]-N-(2,2,2-trifluoroethyl)pyridine-3-carboxamide] | < 200 |
| CC(C)(Oc1ccc(F)cc1Cl)C(=O)N[C@H]1C[C@H]2CC[C@@H](C1)N2c1ccc(C(N)=O)cn1 [Example 74, 6-[3-endo-({2-[(2-chloro-4-fluorophenyl)oxy]-2-methylpropanoyl}amino)-8-azabicyclo[3.2.1]oct-8-yl]pyridine-3-carboxamide] | < 200 |
| CC(C)(Oc1cc(F)c(F)cc1Cl)C(=O)N[C@H]1C[C@H]2CC[C@@H](C1)N2c1ccc(C(=O)NCC(F)(F)F)cn1 [Example 75, 6-[3-endo-({2-[(2-chloro-4,5-difluorophenyl)oxy]-2-methylpropanoyl}amino)-8-azabicyclo[3.2.1]oct-8-yl]-N-(2,2,2-trifluoroethyl)pyridine-3-carboxamide] | < 200 |
| CC(C)(Oc1cc(F)c(Cl)cc1Cl)C(=O)N[C@H]1C[C@H]2CC[C@@H](C1)N2c1ccc(C(N)=O)cn1 [Example 76, 6-[3-endo-({2-[(2,4-dichloro-5-fluorophenyl)oxy]-2-methylpropanoyl}amino)-8-azabicyclo[3.2.1]oct-8-yl]pyridine-3-carboxamide] | < 200 |
| CC(C)(Oc1ccc(Cl)c(F)c1)C(=O)N[C@H]1C[C@H]2CC[C@@H](C1)N2c1ccc(C(=O)NCC(F)(F)F)cn1 [Example 77, 6-[3-endo-({2-[(4-chloro-3-fluorophenyl)oxy]-2-methylpropanoyl}amino)-8-azabicyclo[3.2.1]oct-8-yl]-N-(2,2,2-trifluoroethyl)pyridine-3-carboxamide] | < 200 |
| CC(C)(Oc1ccc(F)c(F)c1)C(=O)N[C@H]1C[C@H]2CC[C@@H](C1)N2c1ccc(C(=O)NCC(F)(F)F)cn1 [Example 78, 6-[3-endo-({2-[(3,4-difluorophenyl)oxy]-2-methylpropanoyl}amino)-8-azabicyclo[3.2.1]oct-8-yl]-N-(2,2,2-trifluoroethyl)pyridine-3-carboxamide] | < 200 |
| CC(C)NC(=O)c1ccc(N2[C@@H]3CC[C@H]2C[C@@H](NC(=O)C(C)(C)Oc2ccc(Cl)c(Cl)c2)C3)nc1 [Example 79, 6-[3-endo-({2-[(3,4-dichlorophenyl)oxy]-2-methylpropanoyl}amino)-8-azabicycio[3.2.1]oct-8-yl]-N-(1-methylethyl)pyridine-3-carboxamide] | < 200 |
